Reference: patent US10517889B2, “Modulators of SMAD7 expression” (Ionis Pharmaceuticals, Inc., priority 2017, dated 2019)
“And” between values parts separate entries of the source, which are not always exact repeats. Equal values may be shown once. Strand notation (5' to 3'): a small letter for the sugar, then the base; units joined by * are phosphorothioate-linked, units joined directly phosphodiester-linked; [ ] holds rarer units or linkages, { } end groups; capitals alone tell only the bases. k = constrained ethyl (cEt); [5mC] = 5-methylcytosine; d = 2'-deoxy (DNA)

Experiments:
human SMAD7 mRNA [1] = test: Dose-dependent inhibition of human SMAD7 mRNA expression in Hep3B cells (Example 3, Study 1 and 2); type: cell-based; conditions: electroporation; for % inhibition of SMAD7 mRNA expression: approximately 16 hours; for IC50: Study 2 (740-20000 nM)
Method: The antisense oligonucleotides were tested in a series of experiments that had similar culture conditions as described below.
(§1) Cells were plated at a density of 20,000 cells per well and transfected using electroporation with 0.31 μM, 1.25 μM, 5.00 μM, or 20.00 μM concentrations of antisense oligonucleotide, as specified in the Tables below. ION 483663 was included in the assays for comparison. After a treatment period of approximately 16 hours, RNA was isolated from the cells and SMAD7 mRNA levels were measured by quantitative real-time PCR. Primer probe set RTS5062 was used to measure human SMAD7 mRNA levels. SMAD7 mRNA levels were adjusted according to total RNA content, as measured by RIBOGREEN®. Results are presented as percent inhibition of SMAD7 mRNA expression, relative to untreated control cells.
The half maximal inhibitory concentration (IC50) of each oligonucleotide is also presented.
as §1, with “0.74” for “0.31”, “2.22” for “1.25”, “6.67” for “5.00”, “below.” for “below. ION 483663 was included in the assays for comparison.”

human SMAD7 mRNA [2] = test: Antisense inhibition of human SMAD7 mRNA expression in Hep3B cells by 3-10-3 cEt gapmers, 10,000 nM, electroporation (Example 2); type: cell-based; conditions: approximately 24 hours
Procedure, shortened: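 qRT-PCR (RTS5062) of SMAD7 mRNA, normalised to RIBOGREEN total RNA, gave percent inhibition relative to untreated controls. Hep3B cells at 20,000 per well received 10,000 nM oligonucleotide by electroporation, with ~24 h treatment.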

[3] = 740 nM, Study 2, relative to untreated control cells
[4] = SMAD7 mRNA, Hep3B cells, 10,000 nM antisense oligonucleotide, electroporation, primer probe set RTS5062, relative to untreated control cells
[5] = Hep3B cells, electroporation with 10,000 nM antisense oligonucleotide, primer probe set RTS5062, relative to untreated control cells
[6] = Hep3B cells, electroporation with 10,000 nM antisense oligonucleotide, SMAD7 mRNA by RT-PCR (RTS5062), relative to untreated control cells

Substance | % inhibition of SMAD7 mRNA expression (human SMAD7 mRNA [1]; [3]) [%] | % inhibition of SMAD7 mRNA expression (human SMAD7 mRNA [1]; 2220 nM, Study 2) [%] | % inhibition of SMAD7 mRNA expression (human SMAD7 mRNA [1]; 6670.0 nM, Study 2) | % inhibition of SMAD7 mRNA expression (human SMAD7 mRNA [1]; 20000.0 nM, Study 2) | IC50 (human SMAD7 mRNA [1]) [µM] | % Inhibition (human SMAD7 mRNA [2]; [4]) [%] | % inhibition of SMAD7 mRNA expression (human SMAD7 mRNA [2]; [5]) [%] | % Inhibition (human SMAD7 mRNA [2]; Hep3B cells, electroporation with 10,000 nM antisense oligonucleotide, RTS5062, percent inhibition of SMAD7 mRNA relative to untreated control cells) [%] | % Inhibition (human SMAD7 mRNA [2]; [6]) [%] | % Inhibition (human SMAD7 mRNA [2]; [5]) [%] | % inhibition of SMAD7 mRNA expression (human SMAD7 mRNA [2]; Hep3B cells, electroporation, 10,000 nM, 3-10-3 cEt gapmers targeting SEQ ID NO: 3 and 4) [%] | % Inhibition (human SMAD7 mRNA [2]; Hep3B cells, 10,000 nM antisense oligonucleotide, electroporation, RT-PCR primer probe set RTS5062, relative to untreated control cells) [%]
772553 (antisense kT*k[5mC]*kT*dT*dG*dA*dG*d[5mC]*dA*d[5mC]*d[5mC]*dG*dA*kG*kT*kG) [compound 772553] | 36 | 45 | 71% | 89% | 2 | 59 |  |  |  |  |  | 
772560 (antisense kT*kT*kG*d[5mC]*dA*d[5mC]*dA*dG*d[5mC]*dA*dG*dG*dA*kG*kG*kG) [compound 772560] | 0 | 32 | 57% | 82% | 5 |  | 66 |  |  |  |  | 
772578 (kG*kG*kT*dA*dT*d[5mC]*dT*dG*dG*dA*dG*dT*dA*kA*kG*kG; antisense) [compound 772578] | 54 | 44 | 70% | 86% | 1 | 63 |  |  |  |  |  | 
772732 (kG*kA*kT*dA*dT*dT*dT*dA*dG*d[5mC]*dT*dG*dT*k[5mC]*kA*kG; antisense) [compound 772732] | 27 | 60 | 63% | 68% | 3 | 58 |  |  |  |  |  | 
772842 (kG*kT*kT*dA*dA*dT*dA*dA*dT*dA*dT*d[5mC]*dT*kT*k[5mC]*k[5mC]; antisense) [compound 772842] | 3 | 23 | 65% | 72% | 6 |  |  | 79 |  |  |  | 
772858 (kA*kG*kT*dG*dT*dT*d[5mC]*dA*dA*d[5mC]*dA*dA*dT*kG*k[5mC]*kT; antisense) [compound 772858] | 7 | 26 | 29% | 51% | > 20 | 62 |  |  |  |  |  | 
790476 (kT*kT*k[5mC]*dT*dT*dG*dA*dG*d[5mC]*dA*d[5mC]*d[5mC]*dG*kA*kG*kT; antisense) [compound 790476] | 8 | 38 | 63% | 69% | 5 |  |  |  | 67 |  |  | 
790488 (kT*kT*k[5mC]*d[5mC]*dG*dA*dG*dG*dA*dA*dT*dG*d[5mC]*k[5mC]*kT*kG; antisense) [compound 790488] | 12 | 34 | 46% | 67% | 7 | 81 |  |  |  |  |  | 
790614 (kG*kA*kG*dA*dA*dT*dG*d[5mC]*dT*dT*d[5mC]*dT*d[5mC]*kT*kT*kG; antisense) [compound 790614] | 0 | 29 | 45% | 54% | 11 |  |  |  |  | 70 |  | 
790616 (k[5mC]*kT*kA*dA*dA*dT*dT*dT*d[5mC]*d[5mC]*dA*dA*dT*kG*kA*kG; antisense) [compound 790616] | 0 | 8 | 26% | 65% | 13 | 66 |  |  |  |  |  | 
790636 (kA*kG*k[5mC]*dA*dT*d[5mC]*dT*dG*dG*dA*d[5mC]*dA*dG*kT*k[5mC]*kA; antisense) [compound 790636] | 89 | 93 | 95% | 99% | < 0.7 |  |  |  |  |  | 95 | 
790666 (kT*kA*kA*dT*dT*dT*dA*dT*dG*dA*d[5mC]*dA*dA*k[5mC]*kG*k[5mC]; antisense) [compound 790666] | 13 | 49 | 54% | 74% | 4 | 72 |  |  |  |  |  | 
790732 (kG*k[5mC]*kT*dT*dA*dT*dT*dT*d[5mC]*dA*dT*dG*dT*kG*kG*kT; antisense) [compound 790732] | 70 | 78 | 88% | 93% | 2 | 69 |  |  |  |  |  | 
790736 (kT*k[5mC]*kA*dA*dA*d[5mC]*dT*dT*dT*dG*dA*dA*dG*k[5mC]*k[5mC]*kT; antisense) [compound 790736] | 32 | 56 | 68% | 74% | > 20 | 60 |  |  |  |  |  | 
798662 (kG*k[5mC]*kT*d[5mC]*d[5mC]*dG*dG*d[5mC]*dT*dG*d[5mC]*d[5mC]*d[5mC]*k[5mC]*kA*k[5mC]; antisense) [compound 798662] | 0 | 28 | 22% | 25% | > 20 |  | 62 |  |  |  |  | 
798686 (antisense kG*kA*kG*dG*dA*dG*dG*d[5mC]*dG*dA*dG*dG*dA*kG*kA*kA) [compound 798686] | 0 | 0 | 2% | 33% | 5 |  | 59 |  |  |  |  | 
798687 (antisense kG*kG*k[5mC]*dG*dA*dG*dG*dA*dG*dG*d[5mC]*dG*dA*kG*kG*kA) [compound 798687] | 27 | 42 | 60% | 61% | 7 |  | 64 |  |  |  |  | 
798696 (antisense kT*k[5mC]*k[5mC]*d[5mC]*d[5mC]*d[5mC]*dT*dG*d[5mC]*dG*d[5mC]*d[5mC]*d[5mC]*kT*k[5mC]*k[5mC]) [compound 798696] | 0 | 33 | 58% | 66% | < 0.7 |  |  |  | 82 |  |  | 
798733 (antisense k[5mC]*kG*k[5mC]*dG*dG*d[5mC]*dT*dG*dG*d[5mC]*dG*dG*dG*kT*kG*kG) [compound 798733] | 58 | 84 | 88% | 95% | 4 |  |  |  | 72 |  |  | 
798764 (kA*k[5mC]*kT*dT*dT*dG*d[5mC]*dA*d[5mC]*dA*dG*d[5mC]*dA*kG*kG*kA; antisense) [compound 798764] |  |  | 57% and 72% and 54% | 93% and 87% and 65% and 83% | 1 | 75 | 69 |  |  |  |  | 
798823 (kA*k[5mC]*kA*dG*dT*dA*dG*dA*dG*d[5mC]*d[5mC]*dT*d[5mC]*k[5mC]*k[5mC]*k[5mC]; antisense) [compound 798823] | 27 | 27 | 63% | 70% | > 20 |  |  |  |  |  |  | 74
